Assays:
[1] = molecular target: T1, Vasopressin V1 receptor subtype in Human Platelet Membranes (Homo sapiens, UniProt P37288); test: Binding to Vasopressin V1 receptor subtype in Human Platelet Membranes; conditions: * V1 receptor subtype in human platelet
T1 construct: Frozen platelet rich plasma (PRP), received from the Hudson Valley Blood Services, are thawed to room temperature; tissue Hudson Valley Blood Services; host or cells: human platelets (platelet rich plasma)
Experimental: Radioligand Binding Experiments with Human Platelet Membranes
Platelet Source: Hudson Valley Blood Services,
Westchester Medical Center, Valhalla, N.Y.
Platelet Membrane Preparation
Frozen platelet rich plasma (PRP), received from the Hudson Valley Blood Services, are thawed to room temperature. The tubes containing the PRP are centrifuged at 16,000×g for 10 min. at 4° C. and the supernatant fluid discarded. The platelets resuspended in an equal volume of 50.0 mM Tris.HCl, pH 7.5 containing 120 mM NaCl and 20.0 mM EDTA. The suspension is recentrifuged at 16,000×g for 10 min. This washing step is repeated one more time. The wash discarded and the lysed pellets homogenized in low ionic strength buffer of Tris.HCl, 5.0 mM, pH 7.5 containing 5.0 mM EDTA. The homogenate is centrifuged at 39,000×g for 10 min. The resulting pellet is resuspended in Tris.HCl buffer, 70.0 mM, pH 7.5 and recentrifuged at 39,000×g for 10 min. The final pellet is resuspended in 50.0 mM Tris.HCl buffer pH 7.4 containing 120 mM NaCl and 5.0 mM KCl to give 1.0-2.0 mg protein per ml of suspension.
Binding to Vasopressin V1 receptor subtype in Human Platelet Membranes
In wells of 96 well format microtiter plate, add 100 μl of 50.0 mM Tris.HCl buffer containing 0.2% BSA and a mixture of protease inhibitors (aprotinin, leupeptin etc.). Then add 20 μl of [^3 H]Ligand (Manning or Arg^8 Vasopressin), to give final concentrations ranging from 0.01 to 10.0 nM. Initiate the binding by adding 80.0 μl of platelet suspension (approx. 100 μg protein). Mix all reagents by pipetting the mixture up and down a few times. Non specific binding is measured in the presence of 1.0 μM of unlabeled ligand (Manning or Arg^8 Vasopressin). Let the mixture stand undisturbed at room temperature for ninety (90) min. Upon this time, rapidly filter off the incubate under vacuum suction over GF/B filters, using a Brandel® Harvester. Determine the radioactivity caught on the filter disks by the addition of liquid scintillant and counting in a liquid scintillator.

[2] = molecular target: T2, Human V2 Vasopressin Receptor (Homo sapiens, UniProt P30518); test: Binding to Membranes of Mouse Fibroblast Cell Line (LV-2) Transfected with the cDNA Expressing the Human V2 Vasopressin Receptor; conditions: ** LV-2 cells transfected with human V2 receptor cDNA; read-out: V2 IC50 (**human V2 receptor)
T2 construct: expressed in transfected cells; host or cells: mouse fibroblast cell line LV-2
T2 sequence (P30518 whole entry): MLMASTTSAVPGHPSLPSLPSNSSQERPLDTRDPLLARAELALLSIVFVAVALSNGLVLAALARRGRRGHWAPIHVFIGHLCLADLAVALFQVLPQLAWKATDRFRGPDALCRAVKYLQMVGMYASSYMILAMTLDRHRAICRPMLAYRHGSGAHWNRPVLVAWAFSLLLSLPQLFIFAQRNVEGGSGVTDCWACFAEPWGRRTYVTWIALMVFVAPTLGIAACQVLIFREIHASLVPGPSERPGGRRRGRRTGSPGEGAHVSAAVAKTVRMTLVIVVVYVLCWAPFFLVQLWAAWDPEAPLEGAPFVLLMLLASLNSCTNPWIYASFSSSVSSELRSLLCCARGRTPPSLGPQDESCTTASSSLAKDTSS
Experimental: Binding to Membranes of Mouse Fibroblast Cell Line (LV-2) Transfected with the cDNA Expressing the Human V2 Vasopressin Receptor Membrane Preparation
Flasks of 175 ml capacity, containing attached cells grown to confluence, are cleared of culture medium by aspiration. The flasks containing the attached cells are rinsed with 2×5 ml of phosphate buffered saline (PBS) and the liquid aspirated off each time. Finally, 5 ml of an enzyme free dissociation Hank's based solution (Specialty Media, Inc., Lafayette, N.J.) is added and the flasks are left undisturbed for 2 min. The content of all flasks is poured into a centrifuge tube and the cells pelleted at 300×g for 15 min. The Hank's based solution is aspirated off and the cells homogenized with a polytron at setting #6 for 10 sec in 10.0 mM Tris.HCl buffer, pH 7.4 containing 0.25M sucrose and 1.0 mM EDTA. The homogenate is centrifuged at 1500×g for 10 min to remove ghost membranes. The supernatant fluid is centrifuged at 100,000×g for 60 min to pellet the receptor protein. Upon completion, the pellet is resuspended in a small volume of 50.0 mM Tris.HCl buffer, pH 7.4. The protein content is determined by the Lowry method and the receptor membranes are suspended in 50.0 mM Tris.HCl buffer containing 0.1 mM phenylmethylsulfonylfluoride (PMSF) and 0.2% bovine serum albumin (BSA) to give 2.5 mg receptor protein per ml of suspension.
For binding experiments, the following is added in μl volume to wells of a 96 well format of a microtiter plate: 100.0 μl of 100.0 mM Tris.HCl buffer containing 0.2% heat inactivated BSA, 10.0 mM MgCl2 and a mixture of protease inhibitors: leupeptin, 1.0 mg %; aprotinin, 1.0 mg %; 1,10-phenanthroline, 2.0 mg %; trypsin inhibitor, 10.0 mg % and 0.1 mM PMSF, 20.0 μl of [^3 H] Arginine^8, vasopressin (S.A. 75.0 Ci/mmole) at 0.8 nM and the reaction initiated by the addition of 80.0 μl of tissue membranes (200.0 μg tissue protein). The plates are left undisturbed on the bench top for 120 min to reach equilibrium. Non specific binding is assessed in the presence of 1.0 μm of unlabeled ligand, added in 20 μl volume. For test compounds, these are solubilized in 50% dimethylsulfoxide (DMSO) and added in 20.0 μl volume to a final incubation volume of 200 μl. Upon completion of binding, the content of each well is filtered off, using a Brandel® cell Harvester (Gaithersburg, Md.). The radioactivity trapped on the filter disk by the ligand-receptor complex is assessed by liquid scintillation counting in a Packard LS Counter, with an efficiency of 65% for tritium. The data are analyzed for IC50 values by the LUNDON-2 program for competition (LUNDON SOFTWARE, Ohio).

T1 sequence (P37288 whole entry): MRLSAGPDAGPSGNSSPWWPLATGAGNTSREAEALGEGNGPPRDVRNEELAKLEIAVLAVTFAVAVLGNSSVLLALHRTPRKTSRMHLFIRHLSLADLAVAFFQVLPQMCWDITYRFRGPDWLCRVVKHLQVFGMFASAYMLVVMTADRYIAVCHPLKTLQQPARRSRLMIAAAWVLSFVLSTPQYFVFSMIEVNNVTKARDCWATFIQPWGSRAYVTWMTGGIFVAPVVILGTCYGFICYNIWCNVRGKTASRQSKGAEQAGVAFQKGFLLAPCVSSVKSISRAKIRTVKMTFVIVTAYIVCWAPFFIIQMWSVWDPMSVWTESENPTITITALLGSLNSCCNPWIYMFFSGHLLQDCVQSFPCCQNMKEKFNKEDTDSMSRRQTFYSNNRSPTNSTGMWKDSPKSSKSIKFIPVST

IC50 [1]: 20 nM
IC50 [2]: 5 nM
SMILES: Cc1ccc(F)cc1C(=O)Nc1ccc(C(=O)N2Cc3cccn3Cc3ccccc32)cn1 [Example 1, N-[5-(5H-Pyrrolo[2,1-c][1,4]benzodiazetin-10(11H)-ylcarbonyl)-2-pyridinyl]-5-fluoro-2-methylbenzamide]

Reference: patent US5753648A, “Tricyclic benzazepine vasopressin antagonists” (American Cyanamid Company, priority 1996, dated 1998)
